Reference: ChEMBL document CHEMBL1201862, “PubChem BioAssay data set” (2004)
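Briefly, cells in 96-well plates were exposed to five compound concentrations for 48 h, and endpoints were estimated by linear interpolation. At the GI50, growth is halved.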 Activity calls are given as the source filed them. No stated cut-off is given here; in the data, active = GI50 up to about 1.1 µM and inactive = higher.

Tests used:
Assay in all cases: NCI tumour cell line growth inhibition, 48 h
Hs-578T = test system: Hs-578T
SR = test system: SR
UO-31 = test system: UO-31
MDA-N = test system: MDA-N
OVCAR-8 = test system: OVCAR-8
SF-295 = test system: SF-295
SK-MEL-5 = test system: SK-MEL-5
U-251 = test system: U-251
BT-549 = test system: BT-549
OVCAR-3 = test system: OVCAR-3
HT-29 = test system: HT-29
OVCAR-4 = test system: OVCAR-4
MCF7 = test system: MCF7
EKVX = test system: EKVX
MOLT-4 = test system: MOLT-4
HCC 2998 = test system: HCC 2998
RPMI-8226 = test system: RPMI-8226
SNB-19 = test system: SNB-19
SN12C = test system: SN12C
K562 = test system: K562

Compound	GI50 (Hs-578T)	GI50 (SR)	GI50 (UO-31)	GI50 (MDA-N)	GI50 (OVCAR-8)	GI50 (SF-295)	GI50 (SK-MEL-5)	GI50 (U-251)	GI50 (BT-549)	GI50 (OVCAR-3)	GI50 (HT-29)	GI50 (OVCAR-4)	GI50 (MCF7)	GI50 (EKVX)	GI50 (MOLT-4)	GI50 (HCC 2998)	GI50 (RPMI-8226)	GI50 (SNB-19)	GI50 (SN12C)	GI50 (K562)
CC(C)C1CSC2N1C(=O)C2(OCc1ccccc1)C1CC1 (stereo not given)	> 100 µM (inactive)	> 100 µM (inactive)	> 100 µM (inactive)	> 100 µM (inactive)	> 100 µM (inactive)	> 100 µM (inactive)	> 100 µM (inactive)	> 100 µM (inactive)	> 100 µM (inactive)	> 100 µM (inactive)	> 100 µM (inactive)	> 100 µM (inactive)	> 100 µM (inactive)	> 100 µM (inactive)	97.1 µM (inactive)	> 100 µM (inactive)	89.1 µM (inactive)	> 100 µM (inactive)	> 100 µM (inactive)	67.8 µM (inactive)
CCOP(=O)(OCC)OC1CC(n2cc(C)c(=O)n(C)c2=O)OC1CO[Si](C)(C)C(C)(C)C (stereo not given)	46.6 µM (inactive)	37.7 µM (inactive)	2.9 µM (inactive)	> 100 µM (inactive)	> 100 µM (inactive)	67 µM (inactive)	58.9 µM (inactive)	> 100 µM (inactive)	55.1 µM (inactive)	> 100 µM (inactive)	> 100 µM (inactive)	> 100 µM (inactive)	73.1 µM (inactive)	24.4 µM (inactive)	37 µM (inactive)	62.4 µM (inactive)	25.2 µM (inactive)	> 100 µM (inactive)	7.06 µM (inactive)	48.4 µM (inactive)
COc1ccc(-n2cnc3c(NCC(=O)O)ncnc32)cc1	> 100 µM (inactive)	> 100 µM (inactive)	> 100 µM (inactive)	> 100 µM (inactive)	> 100 µM (inactive)	> 100 µM (inactive)	> 100 µM (inactive)	> 100 µM (inactive)	> 100 µM (inactive)	> 100 µM (inactive)	> 100 µM (inactive)	> 100 µM (inactive)	> 100 µM (inactive)	> 100 µM (inactive)	> 100 µM (inactive)	> 100 µM (inactive)	> 100 µM (inactive)	> 100 µM (inactive)	> 100 µM (inactive)	> 100 µM (inactive)
Cc1c2c(n(CCc3ccc(Cl)cc3)c1C)NC(c1ccccc1)C(C#N)S2(=O)=O (stereo not given)	26.1 µM (inactive)	3.22 µM (inactive)	13.9 µM (inactive)	19.9 µM (inactive)	47 µM (inactive)	> 53.5 µM (inactive)	3.95 µM (inactive)	38.2 µM (inactive)	37 µM (inactive)	> 91.2 µM (inactive)	11.9 µM (inactive)	> 70.1 µM (inactive)	5.14 µM (inactive)	31.3 µM (inactive)	3.24 µM (inactive)	> 100 µM (inactive)	3.51 µM (inactive)	> 100 µM (inactive)	> 72.1 µM (inactive)	5.14 µM (inactive)
CC(=O)Oc1cccc2c1C(=O)C(Br)(Br)CCC2	7.38 µM (inactive)	1.77 µM (inactive)	9.46 µM (inactive)	2.89 µM (inactive)	4.38 µM (inactive)	17.5 µM (inactive)	4.41 µM (inactive)	9.62 µM (inactive)	2.14 µM (inactive)	6.97 µM (inactive)	5.55 µM (inactive)	1.83 µM (inactive)	2.29 µM (inactive)	11 µM (inactive)	1.11 µM (active)	15.3 µM (inactive)	2.22 µM (inactive)	11.1 µM (inactive)	5.86 µM (inactive)	3.3 µM (inactive)
O/N=C1\CCc2cc3c(cc21)CCC3	34.9 µM (inactive)	> 100 µM (inactive)	> 100 µM (inactive)	> 100 µM (inactive)	> 100 µM (inactive)	> 100 µM (inactive)	> 100 µM (inactive)	> 100 µM (inactive)	> 100 µM (inactive)	> 100 µM (inactive)	> 100 µM (inactive)	> 100 µM (inactive)	> 100 µM (inactive)	5.65 µM (inactive)	> 100 µM (inactive)	> 100 µM (inactive)	> 100 µM (inactive)	> 100 µM (inactive)	> 100 µM (inactive)	> 100 µM (inactive)
CSCCC(NC(=O)OC(C)(C)C)C(=O)NCCNc1ccc(NCCNC(=O)C(CCSC)NC(=O)OC(C)(C)C)c2c1C(=O)c1ccccc1C2=O (stereo not given)	2.39 µM (inactive)	2.83 µM (inactive)	> 100 µM (inactive)	2.74 µM (inactive)	1.96 µM (inactive)	7.57 µM (inactive)	3.07 µM (inactive)	2.88 µM (inactive)	4.43 µM (inactive)	7.16 µM (inactive)	2.64 µM (inactive)	6.7 µM (inactive)	6.01 µM (inactive)	8.11 µM (inactive)	3.44 µM (inactive)	2.32 µM (inactive)	3.01 µM (inactive)	4.75 µM (inactive)	7.71 µM (inactive)	2.75 µM (inactive)
COC(=O)/C(C#N)=C(\Nc1ccccc1)N1CCCC1	> 100 µM (inactive)	> 100 µM (inactive)	> 100 µM (inactive)	> 100 µM (inactive)	> 100 µM (inactive)	> 100 µM (inactive)	> 100 µM (inactive)	> 100 µM (inactive)	> 100 µM (inactive)	> 100 µM (inactive)	> 100 µM (inactive)	> 100 µM (inactive)	> 100 µM (inactive)	> 100 µM (inactive)	> 100 µM (inactive)	> 100 µM (inactive)	> 100 µM (inactive)	> 100 µM (inactive)	> 100 µM (inactive)	> 100 µM (inactive)
O=C(Nc1c(C(F)(F)F)cc(-c2ccccc2)[nH]c1=O)N1CCOCC1	> 100 µM (inactive)	54.3 µM (inactive)	> 100 µM (inactive)	77.1 µM (inactive)	> 100 µM (inactive)	62.1 µM (inactive)	38.1 µM (inactive)	78.5 µM (inactive)	> 100 µM (inactive)	70.8 µM (inactive)	> 100 µM (inactive)	47.8 µM (inactive)	> 100 µM (inactive)	40.2 µM (inactive)	> 100 µM (inactive)	> 100 µM (inactive)	26.9 µM (inactive)	> 100 µM (inactive)	> 100 µM (inactive)	> 100 µM (inactive)
Cc1nc2ccccc2c(=O)n1NC(=O)c1ccc(CS)cc1	16.6 µM (inactive)	2.97 µM (inactive)	12.5 µM (inactive)	> 10 µM (inactive)	20.8 µM (inactive)	25.8 µM (inactive)	3.92 µM (inactive)	3.94 µM (inactive)	13.7 µM (inactive)	11.8 µM (inactive)	10.8 µM (inactive)	15.1 µM (inactive)	5.64 µM (inactive)	4.76 µM (inactive)	1.02 µM (active)	18.5 µM (inactive)	11.1 µM (inactive)	38.2 µM (inactive)	11.9 µM (inactive)	6.21 µM (inactive)
COc1ccccc1C1Nn2c(nc3ccccc3c2=O)N1c1ccc(C)cc1 (stereo not given)	10 µM (inactive)	1.38 µM (inactive)	6.73 µM (inactive)	5.83 µM (inactive)	5.11 µM (inactive)	4.94 µM (inactive)	7.45 µM (inactive)	2.04 µM (inactive)	21.8 µM (inactive)	4.65 µM (inactive)	7.78 µM (inactive)	3.08 µM (inactive)	6.49 µM (inactive)	11.4 µM (inactive)	1.47 µM (inactive)	3.8 µM (inactive)	3.72 µM (inactive)	6.59 µM (inactive)	5.87 µM (inactive)	7.83 µM (inactive)
O=C(O)CO/N=C1/C(=C2/C(=O)Nc3ccccc32)Nc2ccccc21	29.6 µM (inactive)	39.5 µM (inactive)	65 µM (inactive)	50.9 µM (inactive)	> 100 µM (inactive)	89.9 µM (inactive)	24.1 µM (inactive)	82.6 µM (inactive)	51.9 µM (inactive)	18.8 µM (inactive)	44.5 µM (inactive)	48.5 µM (inactive)	36 µM (inactive)	24.9 µM (inactive)	41.4 µM (inactive)	33.1 µM (inactive)	> 100 µM (inactive)	> 100 µM (inactive)	88.3 µM (inactive)	79.8 µM (inactive)
